Where “and” joins values, the source holds several entries; their conditions need not be identical. Identical values can stand only once. Numbers after ± are expanded uncertainties.
Conditions: Crystal, Rate of evaporation

[Ar] [argon]
Conditions	vapor or sublimation pressure
27.51 K	1.95e-09 ± 3.3e-10 kPa and 1.73e-09 ± 4.6e-10 kPa
28.01 K	3.29e-09 ± 4.9e-10 kPa and 3.3e-09 ± 5.6e-10 kPa
28.5 K	5.92e-09 ± 1.3e-09 kPa
28.51 K	5.83e-09 ± 6.1e-10 kPa
29 K	1.028e-08 ± 1.2e-09 kPa
29.01 K	1.035e-08 ± 1.1e-09 kPa
29.5 K	1.808e-08 ± 1.7e-09 kPa
29.51 K	1.812e-08 ± 1.6e-09 kPa
30 K	3.105e-08 ± 4.4e-09 kPa and 3.116e-08 ± 3.5e-09 kPa
30.49 K	5.189e-08 ± 5.4e-09 kPa
30.5 K	5.157e-08 ± 6.5e-09 kPa
30.99 K	8.27e-08 ± 1.2e-08 kPa
31 K	8.469e-08 ± 2.1e-08 kPa

O=C=O [carbon dioxide]
Conditions	vapor or sublimation pressure
80.03 K	7.21e-09 ± 8.9e-10 kPa
80.53 K	8.98e-09 ± 8.5e-10 kPa and 8.61e-09 ± 1e-09 kPa
81.03 K	1.11e-08 ± 1.3e-09 kPa and 1.252e-08 ± 1.1e-09 kPa
81.52 K	1.416e-08 ± 1.6e-09 kPa and 1.56e-08 ± 1.4e-09 kPa
82.02 K	1.819e-08 ± 2.1e-09 kPa and 1.911e-08 ± 1.6e-09 kPa
82.52 K	2.353e-08 ± 2.7e-09 kPa and 2.519e-08 ± 2.1e-09 kPa
83.02 K	2.981e-08 ± 3.3e-09 kPa and 3.328e-08 ± 2.8e-09 kPa
83.53 K	3.967e-08 ± 4.4e-09 kPa and 4.446e-08 ± 3.7e-09 kPa
84.03 K	5.272e-08 ± 1e-08 kPa and 5.947e-08 ± 7.3e-09 kPa
84.53 K	6.988e-08 ± 7.7e-09 kPa and 6.758e-08 ± 5.5e-09 kPa

[Kr] [krypton]
Conditions	vapor or sublimation pressure
38.5 K	1.68e-09 ± 2.9e-10 kPa and 1.86e-09 ± 3e-10 kPa
39 K	2.84e-09 ± 3.7e-10 kPa and 2.68e-09 ± 3.6e-10 kPa
39.49 K	4.01e-09 ± 4.7e-10 kPa
39.5 K	4.34e-09 ± 4.9e-10 kPa
39.99 K	6.3e-09 ± 6.4e-10 kPa
40 K	6.56e-09 ± 6.6e-10 kPa
40.49 K	9.97e-09 ± 9.3e-10 kPa and 9.68e-09 ± 9.1e-10 kPa
41 K	1.527e-08 ± 1.4e-09 kPa and 1.475e-08 ± 1.4e-09 kPa
41.5 K	2.312e-08 ± 2e-09 kPa and 2.262e-08 ± 2e-09 kPa
42 K	3.529e-08 ± 3.2e-09 kPa and 3.422e-08 ± 2.8e-09 kPa
42.5 K	5.406e-08 ± 4.3e-09 kPa
42.51 K	5.092e-08 ± 4.1e-09 kPa

[Ne] [neon]
Conditions	vapor or sublimation pressure [kPa]
8.004 K	2.98e-08 ± 9.8e-09
8.251 K	6.87e-08 ± 1.8e-08
8.502 K	1.633e-07 ± 4.3e-08
8.749 K	3.617e-07 ± 1.3e-07
8.792 K	4.482e-07 ± 1.1e-07
8.996 K	9.17e-07 ± 7.4e-08
9.046 K	9.212e-07 ± 7.3e-08
9.251 K	1.832e-06 ± 3.5e-07
9.468 K	2.529e-06 ± 1.4e-06
9.518 K	3.574e-06 ± 1.3e-06
9.727 K	5.097e-06 ± 1.3e-06
9.776 K	6.564e-06 ± 2.2e-06

N#N [nitrogen]
Conditions	vapor or sublimation pressure [kPa]
23.5 K	1.9e-10 ± 1.9e-10
23.51 K	1.5e-10 ± 1.8e-10
24 K	4e-10 ± 2.9e-10
24.5 K	8.2e-10 ± 5.3e-10
25 K	1.66e-09 ± 1e-09
25.49 K	3.24e-09 ± 2e-09
25.99 K	6.63e-09 ± 4e-09
26.48 K	1.287e-08 ± 7.8e-09
26.99 K	2.45e-08 ± 1.5e-08
27.48 K	3.89e-08 ± 2.4e-08

O=O [oxygen]
Conditions	vapor or sublimation pressure
28.99 K	1.81e-09 ± 7.7e-10 kPa
29.48 K	5.02e-09 ± 2.1e-09 kPa and 3.06e-09 ± 1.3e-09 kPa
29.98 K	5.64e-09 ± 2.3e-09 kPa
29.99 K	8.75e-09 ± 3.6e-09 kPa
30.47 K	1.01e-08 ± 4.1e-09 kPa and 1.531e-08 ± 6.2e-09 kPa
30.98 K	1.855e-08 ± 7.6e-09 kPa and 2.698e-08 ± 1.1e-08 kPa
31.48 K	3.339e-08 ± 1.4e-08 kPa and 4.84e-08 ± 2e-08 kPa
31.77 K	8.494e-08 ± 3.5e-08 kPa
31.98 K	5.894e-08 ± 2.4e-08 kPa
32.48 K	1.034e-07 ± 4.2e-08 kPa and 1.469e-07 ± 6e-08 kPa
32.98 K	1.632e-07 ± 6.6e-08 kPa

O [water]
Conditions	vapor or sublimation pressure
154.97 K	3.289e-08 ± 7.3e-09 kPa and 2.922e-08 ± 6.5e-09 kPa
155.96 K	4.124e-08 ± 8.6e-09 kPa
156.96 K	5.337e-08 ± 1.3e-08 kPa
156.97 K	6.144e-08 ± 1.3e-08 kPa
157.96 K	7.108e-08 ± 1.5e-08 kPa
158.97 K	9.378e-08 ± 2e-08 kPa
159.96 K	1.174e-07 ± 2.5e-08 kPa
159.98 K	1.185e-07 ± 2.5e-08 kPa
160.47 K	1.414e-07 ± 2.9e-08 kPa
160.96 K	1.421e-07 ± 3.3e-08 kPa
160.97 K	1.636e-07 ± 3.4e-08 kPa
161.47 K	1.872e-07 ± 3.9e-08 kPa

[Xe] [xenon]
Conditions	vapor or sublimation pressure
50.01 K	4.67e-10 ± 1.9e-10 kPa and 4.85e-10 ± 1.9e-10 kPa
51.02 K	1.113e-09 ± 2.4e-10 kPa and 1.049e-09 ± 2.4e-10 kPa
52.02 K	2.544e-09 ± 3.5e-10 kPa
52.52 K	2.776e-09 ± 3.7e-10 kPa and 3.083e-09 ± 3.9e-10 kPa
53.02 K	4.226e-09 ± 4.8e-10 kPa and 4.645e-09 ± 5.1e-10 kPa
53.52 K	5.796e-09 ± 6e-10 kPa and 5.947e-09 ± 6.2e-10 kPa
54.02 K	8.078e-09 ± 7.8e-10 kPa and 8.286e-09 ± 8e-10 kPa
54.52 K	1.126e-08 ± 1e-09 kPa and 1.15e-08 ± 1e-09 kPa
55.02 K	1.528e-08 ± 1.3e-09 kPa and 1.544e-08 ± 1.4e-09 kPa
55.52 K	2.113e-08 ± 1.8e-09 kPa
56.02 K	2.907e-08 ± 2.4e-09 kPa and 2.973e-08 ± 2.5e-09 kPa
56.52 K	3.938e-08 ± 3.2e-09 kPa
56.53 K	4.024e-08 ± 3.3e-09 kPa
57.03 K	5.416e-08 ± 4.4e-09 kPa and 5.32e-08 ± 4.3e-09 kPa
